According to patent publication US6492371B2, “Use of cyclic GMP-specific phosphodiesterase inhibitors for treatment of Parkinson's Disease” (priority 2000, dated 2002):
Counter-ions that a name gives are not always drawn.

Columns and labels:
Parkinson's symptoms = assay: Administration of a PDE5 inhibitor compound to a patient suffering from Parkinson's Disease; assay type: in vivo, human; conditions: one patient with PD administered the PDE5 inhibitor
Description: The PDE5 inhibitor was 5-(2-ethoxy-5-(4-methyl-1-piperazinylsulphonyl)phenyl)-1-methyl-3-n-propyl-1,6-dihydro-7H-pyrazolo[4,3-d]pyrimidin-7-one, otherwise known as sildenafil citrate (Viagra®).

[1] = test system: anti-parkinson action of bromocriptine; conditions: patients with PD, concomitant caffeine and bromocriptine; cited from earlier work
[2] = oral, monotherapy; rapid peripheral metabolism by dopa decarboxylase and COMT; cited from earlier work
[3] = test system: effectiveness of L-dopa and dopaminergic ergot derivatives in PD; conditions: therapy of PD, combination with L-dopa and lisuride; cited from earlier work

Q: With `CCCc1nn(C)c2c(=O)[nH]c(-c3cc(S(=O)(=O)N4CCN(C)CC4)ccc3OCC)nc12` [sildenafil citrate, 5-(2-ethoxy-5-(4-methyl-1-piperazinylsulphonyl)phenyl)-1-methyl-3-n-propyl-1,6-dihydro-7H-pyrazolo[4,3-d]pyrimidin-7-one] as the compound, how does the “effect on Parkinson's symptoms noted by the patient” value (Parkinson's symptoms) read?
A: The value was “an improvement in their Parkinson's symptoms”.

Q: For `Cn1c(=O)c2c(ncn2C)n(C)c1=O` [caffeine], which “potentiation of the anti-parkinson action of bromocriptine” value [1] is on record?
A: The value was “failed to potentiate the anti-parkinson action of bromocriptine”.

Q: For `N[C@@H](Cc1ccc(O)c(O)c1)C(=O)O` [L-dopa], which “fraction of orally administered L-dopa that penetrates into brain” value [2] is on record?
A: The value was “Less than 1%”.

Q: Which “potentiation of the effect of L-dopa and lisuride” value [3] does the source give for `COc1ccc(C2CNC(=O)C2)cc1OC1CCCC1` (stereo not shown) [Rolipram, rolipram] here?
A: Its value is “failed to potentiate the effect of L-dopa and lisuride”.
